# Measurements reported in ChEMBL document CHEMBL1133210, “Synthesis of tetrakis(multifluoro-4-pyridyl)porphin derivatives as acetylcholinesterase inhibitors” (Bioorg Med Chem Lett, 2000).
# Molecular target: Acetylcholinesterase (Electrophorus electricus, UniProt O42275)
# Assay: Inhibition constant (Ki) against electric eel Acetylcholinesterase as Km/Vmax versus inhibitor concentration replot
# Acetylcholinesterase, sequence (O42275 whole entry): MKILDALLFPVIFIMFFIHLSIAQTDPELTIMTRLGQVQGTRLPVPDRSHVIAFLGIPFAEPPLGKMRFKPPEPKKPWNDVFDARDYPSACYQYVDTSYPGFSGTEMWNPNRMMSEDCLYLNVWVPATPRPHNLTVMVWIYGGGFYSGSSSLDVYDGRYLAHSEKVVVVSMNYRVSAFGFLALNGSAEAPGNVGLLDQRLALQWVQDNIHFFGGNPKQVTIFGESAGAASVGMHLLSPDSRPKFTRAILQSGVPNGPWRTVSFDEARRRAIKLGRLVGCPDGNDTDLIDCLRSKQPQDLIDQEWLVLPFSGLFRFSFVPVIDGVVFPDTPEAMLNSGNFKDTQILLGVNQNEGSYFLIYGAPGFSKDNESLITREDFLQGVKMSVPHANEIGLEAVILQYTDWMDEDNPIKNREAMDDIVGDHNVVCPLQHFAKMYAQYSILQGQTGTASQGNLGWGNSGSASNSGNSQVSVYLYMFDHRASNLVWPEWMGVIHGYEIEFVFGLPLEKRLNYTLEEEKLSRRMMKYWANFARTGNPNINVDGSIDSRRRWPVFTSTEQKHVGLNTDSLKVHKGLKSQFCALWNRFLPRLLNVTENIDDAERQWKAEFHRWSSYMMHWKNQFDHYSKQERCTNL
row,Compound,Ki [µM]
1,Fc1nc(F)c(F)c(-c2c3nc(c(-c4c(F)c(F)nc(F)c4F)c4ccc([nH]4)c(-c4c(F)c(F)nc(F)c4F)c4ccc([nH]4)c(-c4c(F)c(F)nc(F)c4F)c4nc2C=C4)C=C3)c1F,7.29
2,Fc1ccccc1-c1c2nc(c(-c3ccccc3F)c3ccc([nH]3)c(-c3ccccc3F)c3ccc([nH]3)c(-c3ccccc3F)c3nc1C=C3)C=C2,50.9
3,Fc1cnc(F)c(F)c1-c1c2nc(c(-c3c(F)cnc(F)c3F)c3ccc([nH]3)c(-c3c(F)cnc(F)c3F)c3ccc([nH]3)c(-c3c(F)cnc(F)c3F)c3nc1C=C3)C=C2,2.85
4,Oc1ccc(O)c(-c2c3nc(c(-c4cc(O)ccc4O)c4ccc([nH]4)c(-c4cc(O)ccc4O)c4ccc([nH]4)c(-c4cc(O)ccc4O)c4nc2C=C4)C=C3)c1,2.5
5,Fc1cnccc1-c1c2nc(c(-c3ccncc3F)c3ccc([nH]3)c(-c3ccncc3F)c3ccc([nH]3)c(-c3ccncc3F)c3nc1C=C3)C=C2,5.08
6,Oc1cccc(-c2c3nc(c(-c4cccc(O)c4)c4ccc([nH]4)c(-c4cccc(O)c4)c4ccc([nH]4)c(-c4cccc(O)c4)c4nc2C=C4)C=C3)c1,29.6
7,Fc1cccc(-c2c3nc(c(-c4cccc(F)c4)c4ccc([nH]4)c(-c4cccc(F)c4)c4ccc([nH]4)c(-c4cccc(F)c4)c4nc2C=C4)C=C3)c1,9.7
8,Oc1ccccc1-c1c2nc(c(-c3ccccc3O)c3ccc([nH]3)c(-c3ccccc3O)c3ccc([nH]3)c(-c3ccccc3O)c3nc1C=C3)C=C2,18.3
9,Fc1ccc(-c2c3nc(c(-c4ccc(F)cc4F)c4ccc([nH]4)c(-c4ccc(F)cc4F)c4ccc([nH]4)c(-c4ccc(F)cc4F)c4nc2C=C4)C=C3)c(F)c1,0.012
10,C[n+]1ccc(-c2c3nc(c(-c4cc[n+](C)cc4F)c4ccc([nH]4)c(-c4cc[n+](C)cc4F)c4ccc([nH]4)c(-c4cc[n+](C)cc4F)c4nc2C=C4)C=C3)c(F)c1.Cc1ccc(S(=O)(=O)[O-])cc1.Cc1ccc(S(=O)(=O)[O-])cc1.Cc1ccc(S(=O)(=O)[O-])cc1.Cc1ccc(S(=O)(=O)[O-])cc1,3.06
11,Fc1cccc(F)c1-c1c2nc(c(-c3c(F)cccc3F)c3ccc([nH]3)c(-c3c(F)cccc3F)c3ccc([nH]3)c(-c3c(F)cccc3F)c3nc1C=C3)C=C2,0.005

# Test system: Gallus gallus
# Assay: Compound was tested in vivo for antiangiogenic activity (10 microg dose/ egg) on chorioallantoic membrane of growing chick embryos
# Format: functional
row,Compound,Inhibition [%]
1,C[n+]1ccc(-c2c3nc(c(-c4cc[n+](C)cc4F)c4ccc([nH]4)c(-c4cc[n+](C)cc4F)c4ccc([nH]4)c(-c4cc[n+](C)cc4F)c4nc2C=C4)C=C3)c(F)c1.Cc1ccc(S(=O)(=O)[O-])cc1.Cc1ccc(S(=O)(=O)[O-])cc1.Cc1ccc(S(=O)(=O)[O-])cc1.Cc1ccc(S(=O)(=O)[O-])cc1,60
